For test [1], the target named is hGYS1 enzyme (recombinant hGYS1/GN1 protein) (Homo sapiens (Human), UniProt P13807). Put plainly: GYS1 coupled enzyme assay (PK/LDH). In kind it is biochemical. To be noted: hGYS1/GN1 50 nM, UDP-Glucose 0.8 mM, G6P 1 mM; geometric mean of at least 2 runs.
For test [2], the system named is hGYS1 enzyme / glycogen synthesis in HeLa cells. The test can be described thus: GYS1 cell based assay (glycogen synthesis, Glucose-glo). On the set-up: species or system human. To be noted: Homo sapiens, HeLa, 24 h, 24 h incubation, 20 mM glucose, geometric mean of at least 2 runs. In short, it runs like this:
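HeLa cells starved 24 h in medium containing only 1× Glutamax were plated onto compound in medium with 20 mM glucose (1% DMSO final) for 24 h, 37 °C, 5% CO2. Acid lysates were Tris-quenched, glucoamylase-digested (pH 5.3, 1 h, 37 °C) and read by Glucose-glo luminescence. IC50 came from Hill fits, as geometric mean of ≥2 runs.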

The target in test [3] is hGYS2 enzyme (recombinant hGYS2/GN1 protein) (Homo sapiens (Human), UniProt P54840). The test can be described thus: GYS2 coupled enzyme assay (PK/LDH). It is filed as biochemical. To be noted: geometric mean of at least 2 assay runs on separate days, read-out: Avg_IC50. In a few lines: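 IC50 came from Hill fits of duplicate percent inhibition, based on control-normalized slopes of 340 nm NADH decline read each minute for 10 min. The reaction held recombinant hGYS2/GN1 (200 nM) with glycogen, UDP-glucose, G6P and PEP, plus PK/LDH coupling at pH 7.5 and 2.5% DMSO.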
hGYS2 enzyme (recombinant hGYS2/GN1 protein), sequence (P54840 whole entry): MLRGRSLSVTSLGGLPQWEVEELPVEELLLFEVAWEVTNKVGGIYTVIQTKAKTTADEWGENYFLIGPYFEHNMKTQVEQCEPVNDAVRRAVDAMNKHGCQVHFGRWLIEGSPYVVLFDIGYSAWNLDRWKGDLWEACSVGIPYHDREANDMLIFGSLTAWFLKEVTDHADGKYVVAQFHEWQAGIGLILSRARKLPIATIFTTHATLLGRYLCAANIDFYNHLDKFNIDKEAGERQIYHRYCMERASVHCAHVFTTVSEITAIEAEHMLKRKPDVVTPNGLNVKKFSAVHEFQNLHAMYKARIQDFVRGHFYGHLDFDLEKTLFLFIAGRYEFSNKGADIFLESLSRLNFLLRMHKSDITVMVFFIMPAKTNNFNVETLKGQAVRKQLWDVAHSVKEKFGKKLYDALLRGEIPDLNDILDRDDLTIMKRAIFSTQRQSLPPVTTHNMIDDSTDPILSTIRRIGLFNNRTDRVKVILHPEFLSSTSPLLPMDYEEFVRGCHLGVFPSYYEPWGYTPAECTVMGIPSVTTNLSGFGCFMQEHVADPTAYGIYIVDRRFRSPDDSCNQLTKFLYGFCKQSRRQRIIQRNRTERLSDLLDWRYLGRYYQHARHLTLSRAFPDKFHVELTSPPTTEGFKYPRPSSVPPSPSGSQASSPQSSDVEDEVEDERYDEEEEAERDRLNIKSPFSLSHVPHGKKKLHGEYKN
hGYS2 enzyme (recombinant hGYS2/GN1 protein), sequence (P46976 whole entry partner): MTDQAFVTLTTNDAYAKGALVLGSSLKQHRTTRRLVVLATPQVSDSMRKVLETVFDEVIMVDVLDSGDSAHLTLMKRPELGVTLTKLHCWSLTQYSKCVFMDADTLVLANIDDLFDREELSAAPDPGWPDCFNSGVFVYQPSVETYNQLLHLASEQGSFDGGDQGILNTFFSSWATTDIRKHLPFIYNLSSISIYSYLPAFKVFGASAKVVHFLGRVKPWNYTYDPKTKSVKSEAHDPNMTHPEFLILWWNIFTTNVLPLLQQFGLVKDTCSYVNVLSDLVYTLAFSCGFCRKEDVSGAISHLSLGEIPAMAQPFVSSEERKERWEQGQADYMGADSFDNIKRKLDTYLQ

pIC50: −log10 of the molar value. Where only a bound is given, the exact number is not on record here.

The values that follow come from patent US11814367B2, “Inhibitors of glycogen synthase 1 (GYS1) and methods of use thereof” (Maze Therapeutics, Inc., priority 2021, dated 2023).

hGYS1 enzyme (recombinant hGYS1/GN1 protein), sequence (P13807 whole entry): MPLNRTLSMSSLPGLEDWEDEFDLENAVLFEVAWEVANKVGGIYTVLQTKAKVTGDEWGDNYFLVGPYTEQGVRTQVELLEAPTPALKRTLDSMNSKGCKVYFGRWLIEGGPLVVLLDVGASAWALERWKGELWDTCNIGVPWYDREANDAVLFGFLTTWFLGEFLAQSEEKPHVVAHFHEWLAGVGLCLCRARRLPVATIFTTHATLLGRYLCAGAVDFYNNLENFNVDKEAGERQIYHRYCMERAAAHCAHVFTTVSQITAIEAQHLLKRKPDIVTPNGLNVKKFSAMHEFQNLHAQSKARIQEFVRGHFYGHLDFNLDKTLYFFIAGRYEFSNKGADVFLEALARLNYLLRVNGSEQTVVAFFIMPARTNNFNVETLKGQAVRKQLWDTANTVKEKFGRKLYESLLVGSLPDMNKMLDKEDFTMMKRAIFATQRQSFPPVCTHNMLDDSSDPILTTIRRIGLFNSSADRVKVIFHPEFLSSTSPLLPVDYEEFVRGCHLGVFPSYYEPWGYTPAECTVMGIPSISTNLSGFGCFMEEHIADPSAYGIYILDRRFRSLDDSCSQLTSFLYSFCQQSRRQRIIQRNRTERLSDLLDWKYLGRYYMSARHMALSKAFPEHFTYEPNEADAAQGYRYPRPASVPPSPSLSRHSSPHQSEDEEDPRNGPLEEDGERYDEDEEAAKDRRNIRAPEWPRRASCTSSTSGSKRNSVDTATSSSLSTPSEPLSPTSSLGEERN
hGYS1 enzyme (recombinant hGYS1/GN1 protein), sequence (P46976 whole entry partner): as the sequence (P46976 whole entry partner) above

On to `Cc1coc(CC(=O)N2C[C@H](F)C[C@H]2C(=O)N[C@@H](c2ccccc2)c2ccc(C(C)C)c(F)n2)n1` [Compound 409, (2S,4R)-4-fluoro-N-[(S)-[6-fluoro-5-(propan-2-yl)pyridin-2-yl](phenyl)methyl]-1-[2-(4-methyl-1,3-oxazol-2-yl)acetyl] pyrrolidine-2-carboxamide], for which the pIC50 in test [1] was 8.00; in test [2], 6.54; in test [3], < 4.00.

As for `CC(C)c1ccc([C@@H](NC(=O)[C@@H]2C[C@@H](F)CN2C(=O)CNC(=O)N2CC(F)(F)C2)c2ccccc2)nc1F` [Compound 410, (2S,4R)-1-{2-[(3,3-difluoroazetidine-1-carbonyl)amino]acetyl}-4-fluoro-N-[(S)-[6-fluoro-5-(propan-2-yl)pyridin-2-yl](phenyl)methyl]pyrrolidine-2-carboxamide], the pIC50 in test [1] is 8.10; in test [2], 6.89; in test [3] it was < 4.00.

In the case of `Cc1nn(CC(=O)N2C[C@H](F)C[C@H]2C(=O)N[C@@H](c2ccccc2)c2ccc(C(C)C)c(F)n2)c(=O)o1` [Compound 411, (2S,4R)-4-fluoro-N-[(S)-[6-fluoro-5-(propan-2-yl)pyridin-2-yl](phenyl)methyl)-1-[2-(5-methyl-2-oxo-2,3-dihydro-1,3,4-oxadiazol-3-yl)acetyl]pyrrolidine-2-carboxamide], the pIC50 in test [1] was 8.00; in test [2] it was 6.66; in test [3], < 4.00.

`CC(C)c1ccc([C@@H](NC(=O)[C@@H]2C[C@@H](F)CN2C(=O)Cn2ncc(N3CCC3)n2)c2ccccc2)nc1F` [Compound 412, (2S,4R)-1-{2-[4-(azetidin-1-yl)-2H-1,2,3-triazol-2-yl]acetyl}-4-fluoro-N-[(S)-[6-fluoro-5-(propan-2-yl)pyridin-2-yl](phenyl)methyl] pyrrolidine-2-carboxamide]: the pIC50 in test [1] is 8.15; in test [2] it was 6.92; in test [3], < 4.00.

In the case of `CC(C)c1ccc([C@@H](NC(=O)[C@@H]2C[C@@H](F)CN2C(=O)Cn2ncc(N3CC(F)(F)C3)n2)c2ccccc2)nc1F` [Compound 413, (2S,4R)-1-{2-[4-(3,3-difluoroazetidin-1-yl)-2H-1,2,3-triazol-2-yl]acetyl}-4-fluoro-N-[(S)-[6-fluoro-5-(propan-2-yl)pyridin-2-yl](phenyl)methyl] pyrrolidine-2-carboxamide], the pIC50 in test [1] was 8.22; in test [2], 6.80; in test [3], < 4.00.

Turning to `CCN(CC)c1cnn(CC(=O)N2C[C@H](F)C[C@H]2C(=O)N[C@@H](c2ccccc2)c2ccc(C(C)C)c(F)n2)n1` [Compound 414], the pIC50 in test [1] is 8.52; in test [2] it was 7.22; in test [3], 4.10.

With `CC(C)c1ccc([C@@H](NC(=O)[C@@H]2[C@H]3C[C@H]3CN2C(=O)Cc2cnn[nH]2)c2ccccc2)nc1F` [Compound 415, (1S,2S,5R)-N-[(S)-[6-fluoro-5-(propan-2-yl)pyridin-2-yl](phenyl)methyl]-3-[2-(1H-1,2,3-triazol-5-yl)acetyl]-3-azabicyclo[3.1.0] hexane-2-carboxamide], the pIC50 was 7.32 in test [1], 6.15 in test [2] and < 4.00 in test [3].

As for `CC(C)c1ccc([C@@H](NC(=O)[C@@H]2CC[C@H](C)N2C(=O)Cc2cnn[nH]2)c2ccccc2)nc1F` [Compound 416, (2S,5S)-N-[(S)-[6-fluoro-5-(propan-2-yl)pyridin-2-yl](phenyl)methyl]-5-methyl-1-[2-(1H-1,2,3-triazol-5-yl)acetyl]pyrrolidine-2-carboxamide], the values for the pIC50 in test [1], in test [2] and in test [3] were 7.60, 6.33 and < 4.00, respectively.

`O=C(N[C@@H](c1ccccc1)c1ccc(C2CC2)c(F)c1)[C@@H]1C[C@@H](F)CN1C(=O)Cn1cnc2ccccc21` [Compound 417, (2S,4R)-1-(2-(1H-benzo[d]imidazol-1-yl)acetyl)-N—((S)-(4-cyclopropyl-3-fluorophenyl)(phenyl)methyl)-4-fluoropyrrolidine-2-carboxamide]: the pIC50 in test [1] was 7.64; in test [2], 6.35; in test [3] it was < 4.00.

For `CN1CCN(CC(=O)N2C[C@H](F)C[C@H]2C(=O)N[C@@H](c2ccccc2)c2ccc(C3CC3)c(F)c2)C1=O` [Compound 425, (2S,4R)-N-[(S)-(4-cyclopropyl-3-fluorophenyl)(phenyl)methyl]-4-fluoro-1-[2-(3-methyl-2-oxoimidazolidin-1-yl)acetyl]pyrrolidine-2-carboxamide], the pIC50 in test [1] was 6.65; in test [2] it was 5.44; in test [3], < 4.00.

On to `O=C(N[C@@H](c1ccccc1)c1ccc(C2CC2)c(F)c1)[C@@H]1C[C@@H](F)CN1C(=O)Cc1nnc(C(F)F)o1` [Compound 427, (2S,4R)-N-[(S)-(4-cyclopropyl-3-fluorophenyl)(phenyl)methyl]-1-{2-[5-(difluoromethyl)-1,3,4-oxadiazol-2-yl]acetyl}-4-fluoropyrrolidine-2-carboxamide], for which the pIC50 in test [1] was 6.78; in test [2] it was 5.71; in test [3], < 4.00.

Turning to `O=C(N[C@@H](c1ccccc1)c1ccc(C2CC2)c(F)c1)[C@@H]1C[C@@H](F)CN1C(=O)Cn1cnnn1` [Compound 431, (2S,4R)-N-[(S)-(4-cyclopropyl-3-fluorophenyl)(phenyl)methyl]-4-fluoro-1-[2-(1H-1,2,3,4-tetrazol-1-yl)acetyl]pyrrolidine-2-carboxamide], the pIC50 in test [1] is 6.66; in test [2] it was 5.47; in test [3], < 4.00.

With `Cc1nnn(CC(=O)N2C[C@H](F)C[C@H]2C(=O)N[C@@H](c2ccccc2)c2ccc(C3CC3)c(F)c2)n1` [Compound 433, (2S,4R)-N-[(S)-(4-cyclopropyl-3-fluorophenyl)(phenyl)methyl]-4-fluoro-1-[2-(5-methyl-2H-1,2,3,4-tetrazol-2-yl)acetyl]pyrrolidine-2-carboxamide], the pIC50 in test [1] is 7.04; in test [2], 5.83; in test [3], < 4.00.

Regarding `Cc1cn(CC(=O)N2C[C@H](F)C[C@H]2C(=O)N[C@@H](c2ccccc2)c2ccc(C3CC3)c(F)c2)c(=O)[nH]c1=O` [Compound 442, (2S,4R)-N-[(S)-(4-cyclopropyl-3-fluorophenyl)(phenyl)methyl]-4-fluoro-1-[2-(5-methyl-2,4-dioxo-1,2,3,4-tetrahydropyrimidin-1-yl)acetyl]pyrrolidine-2-carboxamide], the pIC50 in test [1] was 7.64; in test [2], 6.07; in test [3] it was < 4.00.

With `CN1CCN(C(=O)OCC(=O)N2C[C@H](F)C[C@H]2C(=O)N[C@@H](c2ccccc2)c2ccc(C3CC3)c(F)c2)CC1` [Compound 445, 2-[(2S,4R)-2-{[(S)-(4-cyclopropyl-3-fluorophenyl)(phenyl)methyl]carbamoyl}-4-fluoropyrrolidin-1-yl]-2-oxoethyl 4-methylpiperazine-1-carboxylate], the pIC50 in test [1] is 7.12; in test [2], 5.78; in test [3], < 4.00.

On to `O=C(N[C@@H](c1ccccc1)c1ccc(C2CC2)c(F)c1)[C@@H]1C[C@@H](F)CN1C(=O)COC(=O)N1CCN(CC(F)(F)F)CC1` [Compound 446, 2-[(2S,4R)-2-{[(S)-(4-cyclopropyl-3-fluorophenyl)(phenyl)methyl]carbamoyl}-4-fluoropyrrolidin-1-yl]-2-oxoethyl 4-(2,2,2-trifluoroethyl)piperazine-1-carboxylate], for which the pIC50 was 7.01 in test [1], 5.66 in test [2] and < 4.00 in test [3].

For the compound `O=C(N[C@@H](c1ccccc1)c1ccc(C2CC2)c(F)c1)[C@@H]1C[C@@H](F)CN1C(=O)COC(=O)N1CCN(CC2CC2)CC1` [Compound 447, 2-[(2S,4R)-2-{[(S)-(4-cyclopropyl-3-fluorophenyl)(phenyl)methyl]carbamoyl}-4-fluoropyrrolidin-1-yl]-2-oxoethyl 4-(cyclopropylmethyl) piperazine-1-carboxylate], the pIC50 in test [1] was 7.02; in test [2], 5.27; in test [3], < 4.00.

On to `COCCN1CCN(C(=O)OCC(=O)N2C[C@H](F)C[C@H]2C(=O)N[C@@H](c2ccccc2)c2ccc(C3CC3)c(F)c2)CC1` [Compound 448, 2-[(2S,4R)-2-{[(S)-(4-cyclopropyl-3-fluorophenyl)(phenyl)methyl]carbamoyl}-4-fluoropyrrolidin-1-yl]-2-oxoethyl 4-(2-methoxyethyl)piperazine-1-carboxylate], for which the pIC50 in test [1] is 7.15; in test [2], 5.87; in test [3], < 4.00.

In the case of `Cn1c(=O)ccn(CC(=O)N2C[C@H](F)C[C@H]2C(=O)N[C@@H](c2ccccc2)c2ccc(C3CC3)c(F)c2)c1=O` [Compound 449, (2S,4R)-N-[(S)-(4-cyclopropyl-3-fluorophenyl)(phenyl)methyl]-4-fluoro-1-[2-(3-methyl-2,4-dioxo-1,2,3,4-tetrahydropyrimidin-1-yl)acetyl]pyrrolidine-2-carboxamide], the figures for the pIC50 in test [1], in test [2] and in test [3] were 7.41, 6.15 and < 4.00, respectively.
